From patent publication US20040063736A1, “Combination of active ingredients containing alfuzosine and apomorphine” (priority 2001, published 2004) come the findings set out here.

This assay has as its system hypertensive rats (SHR). As to the kind of experiment: Erectile responses (number of erections, intracavernous pressure) in anaesthetised hypertensive rats. As to conditions: for N animals with erections/N animals / Number of erections (mean ± sem): 30 min after infusion.
The mark [1] stands for this setting: alfuzosine 3, 10 or 30 μg/kg alone (i.v. infusion).
Where [2] appears, read: Table 2, apomorphine 50 μg/kg alone.
Where [3] appears, read: apomorphine 10 μg/kg s.c. + 5% glucose infusion.
Setting [4] is: apomorphine 20 μg/kg s.c. + 5% glucose infusion.
Where [5] appears, read: apomorphine 50 μg/kg s.c. + 5% glucose infusion.
[6] abbreviates: apomorphine 100 μg/kg s.c. + 5% glucose infusion.
The mark [7] stands for this setting: apomorphine 250 μg/kg s.c. + 5% glucose infusion.

Each structure is given as a SMILES string.

For `COc1cc2nc(N(C)CCCNC(=O)C3CCCO3)nc(N)c2cc1OC` (stereo not shown) [Alfuzosine], under setting [1], the AUC is 0 mmHg · sec, the Duration of erection was 0 s, the “n animal with erections/n animal” value is on record as 0/6 and the number of erections was 0. In addition, under setting [1], the “ΔICP” value worked out at 0 mmHg. The “induction of erections per se” value (alfuzosine 3 to 100 μg/kg i.v. after vehicle of apomorphine) is listed as “Neither 5% glucose nor alfuzosine (3 to 100 μg/kg i.v.) was able to induce per se erections”.
As for `CN1CCc2cccc3c2[C@H]1Cc1ccc(O)c(O)c1-3` [Apomorphine], under setting [2], the AUC stood at 640 ± 216 mmHg · sec, the Duration of erection amounted to 105 ± 23 s, the “n animal with erections/n animal” value is 9/9 and the number of erections came to 2.6 ± 0.4. Under setting [2], the “ΔICP” value amounted to 29 ± 7 mmHg. For the same molecule, under setting [3], the AUC is on record as 0 mmHg · sec, the Duration amounted to 0 s, the ΔICP was 0 mmHg and the “N animals with erections/N animals” value is 0/8. Also, the “Number of erections (mean ± sem)” value under setting [3] came out at 0. Moreover, under setting [4], the AUC is 582 ± 172 mmHg · sec, the Duration was 61 ± 7 s, the ΔICP was found to be 41.4 ± 13.9 mmHg and the “N animals with erections/N animals” value is recorded as 5/10. For the same molecule, the “Number of erections (mean ± sem)” value under setting [4] worked out at 0.5000. Besides, under setting [5], the AUC is on record as 640 ± 215 mmHg · sec, the Duration stood at 105 ± 23 s, the ΔICP is on record as 29.3 ± 6.5 mmHg and the “N animals with erections/N animals” value is 9/9. Under setting [5], the “Number of erections (mean ± sem)” value amounted to 2.5556. Under setting [6], the AUC is given as 501 ± 193 mmHg · sec, the Duration was 71 ± 19 s, the ΔICP came to 25.5 ± 8.2 mmHg and the “N animals with erections/N animals” value is 9/9. Further, the “Number of erections (mean ± sem)” value under setting [6] came to 3.1111. For the same molecule, under setting [7], the AUC is listed as 1073 ± 237 mmHg · sec, the Duration came to 71 ± 19 s, the ΔICP was 58.6 ± 9.7 mmHg and the “N animals with erections/N animals” value is listed as 6/6. Under setting [7], the “Number of erections (mean ± sem)” value came out at 5.0000. The erectile responses entry (apomorphine 10-250 μg/kg s.c.) was “induced concentration-dependent erectile responses”. Under “apomorphine s.c.”, the “first dose triggering erections in some animals in comparison to the control group” value came out at 0.02 mg/kg and the “first dose which induced at least one erectile event in all the animals” value is 0.05 mg/kg. Moreover, where the note is “text b79, apomorphine 50 μg/kg alone”, the number of erections was 2.6±0.4.
